The source of these data is patent US20250059194A1, “ULK1 AND ULK2 INHIBITORS” (Board of Trustees of Michigan State University, priority 2021, published 2025).

The target in one data set is ULK1 (Homo sapiens (Human), UniProt O75385). Kind of data set: ULK1 IC50. Type of data set: biochemical.
In the next data set the target is ULK2 (Homo sapiens (Human), UniProt Q8IYT8). Nature of the data set: ULK2 IC50. Type of data set: biochemical.
The next data set can be described thus: Kinetic Solubility. Type of data set: physicochemical. The conditions noted are these: kinetic from dmso stock.
The next data set relates to Cell. Kind of data set: Cell EC50. Type of data set: cell-based.

Structures can show the parent of a compound that is named as a salt. Some results are limits rather than exact numbers.

Sequence of ULK2 (Q8IYT8 whole entry): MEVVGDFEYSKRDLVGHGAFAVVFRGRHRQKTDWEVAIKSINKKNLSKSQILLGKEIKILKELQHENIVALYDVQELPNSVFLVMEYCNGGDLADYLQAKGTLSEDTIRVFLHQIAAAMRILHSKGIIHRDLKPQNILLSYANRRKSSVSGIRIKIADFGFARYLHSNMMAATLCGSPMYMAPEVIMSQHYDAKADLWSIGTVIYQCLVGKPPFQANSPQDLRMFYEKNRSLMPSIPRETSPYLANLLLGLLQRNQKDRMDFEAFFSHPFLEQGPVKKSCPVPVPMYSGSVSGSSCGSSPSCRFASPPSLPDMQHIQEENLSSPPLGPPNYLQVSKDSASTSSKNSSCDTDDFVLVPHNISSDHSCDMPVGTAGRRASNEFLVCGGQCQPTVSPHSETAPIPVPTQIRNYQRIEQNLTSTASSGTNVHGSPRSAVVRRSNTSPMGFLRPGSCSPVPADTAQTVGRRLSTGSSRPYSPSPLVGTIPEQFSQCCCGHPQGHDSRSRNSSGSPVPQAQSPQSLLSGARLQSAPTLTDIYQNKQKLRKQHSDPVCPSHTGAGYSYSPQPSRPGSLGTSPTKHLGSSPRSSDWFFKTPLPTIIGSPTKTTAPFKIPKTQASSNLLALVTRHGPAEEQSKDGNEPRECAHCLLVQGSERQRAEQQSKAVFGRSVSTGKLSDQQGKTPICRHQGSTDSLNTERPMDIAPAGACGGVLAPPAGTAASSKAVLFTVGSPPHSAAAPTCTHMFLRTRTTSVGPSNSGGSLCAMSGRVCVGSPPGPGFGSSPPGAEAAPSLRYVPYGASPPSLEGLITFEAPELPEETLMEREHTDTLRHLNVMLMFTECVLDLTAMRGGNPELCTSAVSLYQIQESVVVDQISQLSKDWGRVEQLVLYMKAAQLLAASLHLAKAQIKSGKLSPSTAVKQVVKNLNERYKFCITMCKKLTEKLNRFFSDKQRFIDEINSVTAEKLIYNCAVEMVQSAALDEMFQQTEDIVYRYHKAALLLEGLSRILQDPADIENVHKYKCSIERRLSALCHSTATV
Sequence of ULK1 (O75385 whole entry): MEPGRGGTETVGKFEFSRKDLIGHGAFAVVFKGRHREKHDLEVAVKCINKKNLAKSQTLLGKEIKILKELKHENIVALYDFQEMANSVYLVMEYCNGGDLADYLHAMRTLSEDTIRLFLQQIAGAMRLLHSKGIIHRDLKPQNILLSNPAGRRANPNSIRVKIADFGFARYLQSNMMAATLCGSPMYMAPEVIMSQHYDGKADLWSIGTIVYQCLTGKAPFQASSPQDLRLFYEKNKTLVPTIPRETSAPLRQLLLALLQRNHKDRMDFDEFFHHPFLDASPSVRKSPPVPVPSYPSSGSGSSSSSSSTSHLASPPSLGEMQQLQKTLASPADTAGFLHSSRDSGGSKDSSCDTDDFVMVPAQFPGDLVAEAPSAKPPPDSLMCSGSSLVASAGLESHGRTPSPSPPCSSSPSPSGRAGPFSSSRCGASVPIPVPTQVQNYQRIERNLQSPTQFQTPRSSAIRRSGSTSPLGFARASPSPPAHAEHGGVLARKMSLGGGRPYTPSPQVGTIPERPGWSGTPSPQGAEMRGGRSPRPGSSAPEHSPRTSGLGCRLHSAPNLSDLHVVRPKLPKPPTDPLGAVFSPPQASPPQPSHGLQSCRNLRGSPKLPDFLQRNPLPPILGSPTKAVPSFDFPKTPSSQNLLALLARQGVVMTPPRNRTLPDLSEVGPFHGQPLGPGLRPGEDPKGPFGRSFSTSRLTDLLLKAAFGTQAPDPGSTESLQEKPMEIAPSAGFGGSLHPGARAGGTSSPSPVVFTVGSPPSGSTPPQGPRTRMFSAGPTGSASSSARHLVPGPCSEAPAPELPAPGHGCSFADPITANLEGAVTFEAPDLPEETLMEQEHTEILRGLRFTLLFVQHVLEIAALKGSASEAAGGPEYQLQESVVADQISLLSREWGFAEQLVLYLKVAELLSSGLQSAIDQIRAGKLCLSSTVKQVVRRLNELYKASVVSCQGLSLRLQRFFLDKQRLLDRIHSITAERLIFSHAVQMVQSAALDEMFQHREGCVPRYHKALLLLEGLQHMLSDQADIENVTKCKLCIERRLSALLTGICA

Turning to `CC(C)(CO)NC(=O)c1cc(-c2cnn3cc(N4CCNCC4)cnc23)cs1` [N-(1-hydroxy-2-methylpropan-2-yl)-4-[6-(piperazin-1-yl)pyrazolo[1,5-a]pyrimidin-3-yl]thiophene-2-carboxamide hydrochloride], the IC50 (usually the concentration needed to halve the response being measured) against ULK1 lay within 100 to 499 nM; against ULK2, 500 to 1000 nM.

On to `CCC(CC)NC(=O)c1cc(-c2cnn3cc(-n4ccccc4=O)cnc23)cs1` [4-[6-(2-oxo-1,2-dihydropyridin-1-yl)pyrazolo[1,5-a]pyrimidin-3-yl]-N-(pentan-3-yl)thiophene-2-carboxamide], for which, on ULK1, the IC50 fell in the range of 500 to 1000 nM.

On to `CCC(CC)NC(=O)c1cc(-c2cnn3cc(N4CCC(N)CC4)cnc23)cs1` [4-[6-(4-aminopiperidin-1-yl)pyrazolo[1,5-a]pyrimidin-3-yl]-N-(pentan-3-yl)thiophene-2-carboxamide hydrochloride], for which the solubility (kinetic) (commonly the concentration staying in solution when a stock, usually in DMSO, is diluted into the medium) in “Kinetic Solubility” was 203 µM. Besides, the IC50 fell in the range of 1 to 49 nM on ULK1 and 50 to 99 nM against ULK2. Further, the EC50 (usually the concentration that produces a half-maximal response) in the data set on Cell fell in the range of 100 to 499 nM.

Molecule `O=C(N[C@@H](C1CC1)C(F)(F)F)c1cc(-c2cnn3cc(Nc4ccc(F)cc4)cnc23)cs1` returned a 50% inhibitory concentration (IC50) at ULK1 of 1 to 49 nM.

On ULK1, `CCC(CC)NC(=O)c1cc(-c2cnn3cc(NC4CC4)cnc23)cs1` [4-[6-(cyclopropylamino)pyrazolo[1,5-a]pyrimidin-3-yl]-N-(pentan-3-yl)thiophene-2-carboxamide] came in with an IC50 of 100 to 499 nM.

`CCC(CC)NC(=O)c1cc(-c2cnn3cc(Nc4ccccc4)cnc23)cs1` [N-(pentan-3-yl)-4-[6-(phenylamino)pyrazolo[1,5-a]pyrimidin-3-yl]thiophene-2-carboxamide]: the IC50 at ULK1 and at ULK2 was 1 to 49 nM each time. In the data set on Cell, the EC50 fell in the range of 100 to 499 nM.

On to `CCC(CC)NC(=O)c1cc(-c2cnn3cc(N4CCC(NC(=O)OC(C)(C)C)CC4)cnc23)cs1`, for which the IC50 at ULK1 lay in the range of 50 to 99 nM. In addition, in the data set with Cell, the EC50 was more than 1000 nM.

For `CC(C)(C)OC(=O)N[C@@H]1CCCC[C@@H]1NC(=O)c1cc(-c2cnn3cc(N4CCN(C(=O)OC(C)(C)C)CC4)cnc23)cs1` [tert-butyl 4-[3-(5-{[(1S,2R)-2-{[(tert-butoxy)carbonyl]amino}cyclohexyl]carbamoyl}thiophen-3-yl)pyrazolo[1,5-a]pyrimidin-6-yl]piperazine-1-carboxylate], the 50% inhibitory concentration (IC50) on ULK1 was in the range of 100 to 499 nM; against ULK2 it was 500 to 1000 nM.

In turn, `O=C(N[C@@H](C1CC1)C(F)(F)F)c1cc(-c2cnn3cc(N4CCNCC4)cnc23)cs1` returned an IC50 against ULK1 of 1 to 49 nM.

For the molecule `N[C@@H]1CCCC[C@@H]1NC(=O)c1cc(-c2cnn3cc(N4CCNCC4)cnc23)cs1` [N-[(1S,2R)-2-aminocyclohexyl]-4-[6-(piperazin-1-yl)pyrazolo[1,5-a]pyrimidin-3-yl]thiophene-2-carboxamide dihyrochloride], the kinetic solubility in “Kinetic Solubility” is more than 300 µM. The IC50 against ULK1 and against ULK2 was 1 to 49 nM each time. In the data set with Cell, the EC50 is 1 to 49 nM.

For `CCC(CC)NC(=O)c1cc(-c2cnn3cc(N4CCCC4)cnc23)cs1` [N-(pentan-3-yl)-4-[6-(pyrrolidin-1-yl)pyrazolo[1,5-a]pyrimidin-3-yl]thiophene-2-carboxamide], at ULK1, the IC50 was in the range of 500 to 1000 nM.

The molecule `CCC(CC)NC(=O)c1cc(-c2cnn3cc(N4CCNCC4)cnc23)cs1` [hydrochloride] had a kinetic solubility in the data set “Kinetic Solubility” of more than 300 µM. This molecule also gave an IC50 against ULK1 of 50 to 99 nM. The EC50 in the data set on Cell is 500 to 1000 nM.

Consider `NC1CCN(c2cnc3c(-c4csc(C(=O)N[C@@H](C5CC5)C(F)(F)F)c4)cnn3c2)CC1`, for which the half-maximal inhibitory concentration (IC50) at ULK1 lay in the range of 1 to 49 nM.

In turn, `CCC(CC)NC(=O)c1cc(-c2cnn3cc(N4CCN(C(=O)OC(C)(C)C)CC4)cnc23)cs1` [tert-butyl 4-(3-{5-[(pentan-3-yl)carbamoyl]thiophen-3-yl}pyrazolo[1,5-a]pyrimidin-6-yl) piperazine-1-carboxylate] registered an IC50 on ULK1 of 1 to 49 nM. In the data set on Cell, this molecule showed an EC50 of more than 1000 nM.

Turning to `CCC(NC(=O)c1cc(-c2cnn3cc(Nc4ccccc4)cnc23)cs1)C1CC1` (stereo not drawn), at ULK1, the IC50 was 1 to 49 nM.

Turning to `CC(C)(CO)NC(=O)c1cc(-c2cnn3cc(N4CCN(C(=O)OC(C)(C)C)CC4)cnc23)cs1` [tert-butyl 4-(3-{5-[(1-hydroxy-2-methylpropan-2-yl)carbamoyl]thiophen-3-yl}pyrazolo[1,5-a]pyrimidin-6-yl) piperazine-1-carboxylate], the IC50 was 1 to 49 nM against ULK1 and 100 to 499 nM at ULK2.

`O=C(N[C@@H](C1CC1)C(F)(F)F)c1cc(-c2cnn3cc(Nc4ccccc4)cnc23)cs1` showed an IC50 against ULK1 of 1 to 49 nM.

Molecule `CC[C@H](NC(=O)c1cc(-c2cnn3cc(Nc4ccccc4)cnc23)cs1)C(F)(F)F` displayed an IC50 against ULK1 of 1 to 49 nM.
